Source: patent US12447153B2, “HER2 mutation inhibitors” (Array BioPharma Inc., priority 2021, dated 2025)

Experiments:
EGFR = EGFR (Homo sapiens (Human), UniProt P00533); test: ErbB Enzyme Assay (HTRF KinEASE-TK), Assay 3; assay type: biochemical
[1] = target: ErbB2 with Exon 20 YVMA insertion (HER2-YVMA) (Homo sapiens (Human), UniProt P04626, INS775YVMA); test: Cellular Phosphorylation Assay, Assay 4 (constitutive ErbB2 phosphorylation, NIH 3T3 cells); assay type: cell-based
ErbB2 WT = ErbB2 WT (Homo sapiens (Human), UniProt P04626); test: ErbB Enzyme Assay (HTRF KinEASE-TK), Assay 2; assay type: biochemical
EGFR wild type (EGFR WT) = EGFR wild type (EGFR WT) (Homo sapiens (Human), UniProt P00533); test: Cellular Phosphorylation Assay, Assay 5 (EGF-stimulated EGFR phosphorylation, NIH 3T3 cells); assay type: cell-based
BCRP = BCRP (Homo sapiens (Human), UniProt Q9UNQ0); test: BCRP MDCKII efflux assay (Assay 7); assay type: in vitro ADME; settings: dog; efflux ratio Papp(B-A)/Papp(A-B), BCRP MDCKII cells; read-out: Assay 7 Pe Ratio
Description: Assay conditions included with and without the BCRP-specific inhibitor, KO143, at a concentration of 0.3 μM to ascertain the contribution of BCRP to the efflux value of the test compound.
Final organic concentration in the assay was 1%.

[2] = cellular ErbB2 YVMA phosphorylation
[3] = cellular EGFR WT phosphorylation, EGF-stimulated
[4] = EGF-stimulated EGFR WT phosphorylation

ErbB2 with Exon 20 YVMA insertion (HER2-YVMA), sequence (P04626 other isoform, or with tags, fused parts or gaps ins YVMA behind 775): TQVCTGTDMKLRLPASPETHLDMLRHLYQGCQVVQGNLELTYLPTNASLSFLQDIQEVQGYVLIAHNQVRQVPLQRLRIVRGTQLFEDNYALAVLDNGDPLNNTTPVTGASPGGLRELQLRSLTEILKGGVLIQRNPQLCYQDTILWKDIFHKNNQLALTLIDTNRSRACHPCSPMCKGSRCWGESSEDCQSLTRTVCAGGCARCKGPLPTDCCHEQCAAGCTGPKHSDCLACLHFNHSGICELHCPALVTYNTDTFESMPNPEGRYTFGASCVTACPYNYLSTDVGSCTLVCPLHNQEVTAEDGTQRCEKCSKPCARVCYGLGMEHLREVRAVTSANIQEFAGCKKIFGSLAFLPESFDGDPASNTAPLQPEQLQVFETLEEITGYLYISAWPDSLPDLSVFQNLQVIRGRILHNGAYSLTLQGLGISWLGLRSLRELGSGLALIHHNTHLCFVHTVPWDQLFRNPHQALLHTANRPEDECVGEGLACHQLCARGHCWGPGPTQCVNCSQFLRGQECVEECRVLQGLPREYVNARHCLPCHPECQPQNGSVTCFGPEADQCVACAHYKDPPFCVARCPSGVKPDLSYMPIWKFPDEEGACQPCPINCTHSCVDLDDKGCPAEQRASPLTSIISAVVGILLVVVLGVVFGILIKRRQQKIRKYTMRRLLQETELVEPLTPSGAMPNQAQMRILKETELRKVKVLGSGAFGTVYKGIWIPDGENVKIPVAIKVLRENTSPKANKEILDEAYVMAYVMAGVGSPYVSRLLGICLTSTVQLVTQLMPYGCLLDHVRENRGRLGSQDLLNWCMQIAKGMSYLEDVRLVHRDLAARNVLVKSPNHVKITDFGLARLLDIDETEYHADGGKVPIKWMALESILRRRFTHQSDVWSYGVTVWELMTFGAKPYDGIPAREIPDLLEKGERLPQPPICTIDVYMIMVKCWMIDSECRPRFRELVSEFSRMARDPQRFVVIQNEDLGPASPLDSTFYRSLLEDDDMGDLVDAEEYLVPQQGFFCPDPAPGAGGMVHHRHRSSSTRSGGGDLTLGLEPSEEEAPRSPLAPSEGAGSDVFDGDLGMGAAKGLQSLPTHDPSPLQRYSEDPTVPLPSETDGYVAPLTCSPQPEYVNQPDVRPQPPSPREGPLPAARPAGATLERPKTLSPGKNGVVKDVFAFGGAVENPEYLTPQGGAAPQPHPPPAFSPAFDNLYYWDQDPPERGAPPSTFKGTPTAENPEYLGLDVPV
ErbB2 WT, sequence (P04626 23-1255): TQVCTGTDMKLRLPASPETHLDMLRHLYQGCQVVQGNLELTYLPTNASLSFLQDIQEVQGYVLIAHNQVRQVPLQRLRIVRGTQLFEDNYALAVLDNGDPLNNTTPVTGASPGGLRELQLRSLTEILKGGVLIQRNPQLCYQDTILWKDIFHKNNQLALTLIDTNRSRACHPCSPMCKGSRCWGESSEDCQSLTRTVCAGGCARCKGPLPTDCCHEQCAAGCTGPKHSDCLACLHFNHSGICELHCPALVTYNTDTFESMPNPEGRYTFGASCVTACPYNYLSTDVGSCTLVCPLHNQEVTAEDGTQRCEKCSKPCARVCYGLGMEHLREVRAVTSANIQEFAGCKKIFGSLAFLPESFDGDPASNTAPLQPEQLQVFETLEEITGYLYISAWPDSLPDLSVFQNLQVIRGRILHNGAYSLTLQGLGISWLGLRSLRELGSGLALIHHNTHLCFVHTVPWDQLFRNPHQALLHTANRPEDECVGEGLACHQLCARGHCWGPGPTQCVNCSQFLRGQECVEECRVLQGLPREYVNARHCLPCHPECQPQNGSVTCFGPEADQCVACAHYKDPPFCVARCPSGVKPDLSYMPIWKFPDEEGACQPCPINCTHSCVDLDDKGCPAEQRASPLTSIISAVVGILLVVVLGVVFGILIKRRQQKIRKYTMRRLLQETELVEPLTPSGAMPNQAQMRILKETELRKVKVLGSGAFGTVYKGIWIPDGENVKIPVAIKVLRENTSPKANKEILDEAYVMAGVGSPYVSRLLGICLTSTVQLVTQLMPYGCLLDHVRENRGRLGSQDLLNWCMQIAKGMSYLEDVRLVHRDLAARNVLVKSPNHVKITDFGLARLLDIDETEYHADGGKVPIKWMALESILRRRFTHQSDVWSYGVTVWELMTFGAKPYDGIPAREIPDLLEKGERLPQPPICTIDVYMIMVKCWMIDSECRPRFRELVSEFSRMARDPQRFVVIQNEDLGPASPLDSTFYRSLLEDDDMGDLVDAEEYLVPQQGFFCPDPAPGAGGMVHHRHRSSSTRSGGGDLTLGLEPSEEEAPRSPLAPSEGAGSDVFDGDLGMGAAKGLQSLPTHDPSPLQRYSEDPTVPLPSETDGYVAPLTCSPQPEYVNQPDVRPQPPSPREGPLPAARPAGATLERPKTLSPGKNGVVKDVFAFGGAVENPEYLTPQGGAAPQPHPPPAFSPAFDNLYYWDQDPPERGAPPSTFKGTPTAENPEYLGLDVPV
EGFR wild type (EGFR WT), sequence (P00533 25-1210): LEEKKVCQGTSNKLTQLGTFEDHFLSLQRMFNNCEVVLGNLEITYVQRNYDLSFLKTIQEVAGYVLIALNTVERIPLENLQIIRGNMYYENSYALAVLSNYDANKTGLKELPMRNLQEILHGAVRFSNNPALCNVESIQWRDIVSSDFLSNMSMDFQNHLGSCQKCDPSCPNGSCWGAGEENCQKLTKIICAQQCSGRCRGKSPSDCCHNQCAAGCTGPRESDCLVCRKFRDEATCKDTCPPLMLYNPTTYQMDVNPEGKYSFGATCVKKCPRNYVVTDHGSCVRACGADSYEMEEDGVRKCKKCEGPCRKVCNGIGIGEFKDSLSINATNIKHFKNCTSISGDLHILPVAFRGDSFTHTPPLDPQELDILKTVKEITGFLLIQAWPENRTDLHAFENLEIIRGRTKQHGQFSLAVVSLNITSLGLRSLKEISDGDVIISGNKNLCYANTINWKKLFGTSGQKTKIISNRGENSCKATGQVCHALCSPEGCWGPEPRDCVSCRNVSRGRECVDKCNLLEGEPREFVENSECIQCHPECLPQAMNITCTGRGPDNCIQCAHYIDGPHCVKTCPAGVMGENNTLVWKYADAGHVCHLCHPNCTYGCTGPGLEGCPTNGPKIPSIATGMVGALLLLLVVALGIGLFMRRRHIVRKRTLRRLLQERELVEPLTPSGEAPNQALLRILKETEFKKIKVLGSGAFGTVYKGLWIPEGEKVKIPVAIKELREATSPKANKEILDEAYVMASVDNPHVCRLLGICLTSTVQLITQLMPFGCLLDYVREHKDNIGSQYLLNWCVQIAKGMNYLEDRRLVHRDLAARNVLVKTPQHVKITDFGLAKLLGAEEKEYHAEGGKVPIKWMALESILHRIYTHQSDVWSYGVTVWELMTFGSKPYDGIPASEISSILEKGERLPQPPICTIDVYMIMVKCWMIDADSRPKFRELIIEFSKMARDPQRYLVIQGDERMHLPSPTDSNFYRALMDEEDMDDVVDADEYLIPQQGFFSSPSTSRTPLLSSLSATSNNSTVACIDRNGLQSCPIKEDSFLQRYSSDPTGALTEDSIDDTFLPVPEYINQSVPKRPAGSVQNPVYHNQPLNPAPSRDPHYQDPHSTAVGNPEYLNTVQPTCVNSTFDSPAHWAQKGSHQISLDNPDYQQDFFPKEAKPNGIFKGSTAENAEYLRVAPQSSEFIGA
EGFR, sequence (P00533 25-1210): as above

| SMILES | IC50 (EGFR; EGFR enzyme assay) [nM] | IC50 [1, 2] [nM] | IC50 (ErbB2 WT; ErbB2 WT enzyme assay) [nM] | IC50 (EGFR wild type (EGFR WT); [3]) [nM] | efflux ratio at 2 h, 1 µM (BCRP) | IC50 (EGFR; EGFR enzyme) [nM] | IC50 ([1]; ErbB2 YVMA phosphorylation) [nM] | IC50 (ErbB2 WT; ErbB2 WT enzyme) [nM] | IC50 (EGFR wild type (EGFR WT); [4]) [nM] |
| --- | --- | --- | --- | --- | --- | --- | --- | --- | --- |
| C=CC(=O)N1C[C@H](c2ccc3ncnc(Nc4ccc(Oc5ccn6ncnc6c5)c(C)c4F)c3n2)C[C@H]1COC (mixture of isomers) [Example 306] | 1930 | 20.2 | 59.2 | 3090 | 6.8 | – | – | – | – |
| C=CC(=O)N1CCC[C@@H](c2ccc3ncnc(Nc4ccc(Oc5ccc6c(c5)ncn6C)c(C)c4)c3n2)C1 (racemic) [Example 35, 1-(3-(4-((3-methyl-4-((1-methyl-1H-benzo[d]imidazol-5-yl)oxy)phenyl)amino)pyrido[3,2-d]pyrimidin-6-yl)piperidin-1-yl)prop-2-en-1-one] | – | – | – | – | 2.7 | 1400 | 10.4 | 6.2 | 2730 |
| C=CC(=O)N1CCC(c2ccc3ncnc(Nc4ccc(Oc5ccc6c(c5)ncn6C)c(C)c4)c3n2)C1 (racemic) [Example 120, rac-(R)-1-(3-(4-((3-methyl-4-((1-methyl-1H-benzo[d]imidazol-5-yl)oxy)phenyl)amino)pyrido[3,2-d]pyrimidin-6-yl)pyrrolidin-1-yl)prop-2-en-1-one] | – | – | – | – | 15.8 | 7270 | 8.4 | 42 | ≥ 5000 |
| C=CC(=O)N1CC[C@@H](c2ccc3ncnc(Nc4ccc(Oc5ccc6c(c5)ncn6C)c(C)c4F)c3n2)C1 (racemic) [Example 131, rac-(R)-1-(3-(4-((2-fluoro-3-methyl-4-((1-methyl-1H-benzo[d]imidazol-5-yl)oxy)phenyl)amino)pyrido[3,2-d]pyrimidin-6-yl)pyrrolidin-1-yl)prop-2-en-1-one] | – | – | – | – | 6.4 | 2160 | 9.6 | 55.9 | 4760 |
| C=CC(=O)N1CC[C@@H](c2ccc3ncnc(Nc4cc(C)c(Oc5ccc6c(c5)ncn6C)cc4F)c3n2)C1 (racemic) [Example 132, rac-(R)-1-(3-(4-((2-fluoro-5-methyl-4-((1-methyl-1H-benzo[d]imidazol-5-yl)oxy)phenyl)amino)pyrido[3,2-d]pyrimidin-6-yl)pyrrolidin-1-yl)prop-2-en-1-one] | – | – | – | – | 7.9 | ≥ 10000 | 18.8 | 75.9 | ≥ 5000 |
| C=CC(=O)N1CCCC[C@@H](c2ccc3ncnc(Nc4cc(C)c(Oc5ccc6c(c5)ncn6C)cc4F)c3n2)C1 (racemic) [Example 137, rac-(R)-1-(3-(4-((2-fluoro-5-methyl-4-((1-methyl-1H-benzo[d]imidazol-5-yl)oxy)phenyl)amino)pyrido[3,2-d]pyrimidin-6-yl)azepan-1-yl)prop-2-en-1-one] | – | – | – | – | 1.9 | 2630 | 16.8 | 27.9 | 4370 |
| C=CC(=O)N1C[C@H](c2ccc3ncnc(Nc4cc(C)c(Oc5ccc6c(c5)ncn6C)cc4F)c3n2)CCC1(C)C (racemic) [Example 141, rac-(R)-1-(5-(4-((2-fluoro-5-methyl-4-((1-methyl-1H-benzo[d]imidazol-5-yl)oxy)phenyl)amino)pyrido[3,2-d]pyrimidin-6-yl)-2,2-dimethylpiperidin-1-yl)prop-2-en-1-one] | – | – | – | – | 2.4 | ≥ 10000 | 17.6 | 180 | ≥ 5000 |
| C=CC(=O)N1CCN(c2ccc3ncnc(Nc4ccc(Oc5cnc6c(c5)ncn6C)c(C)c4F)c3n2)C[C@@H]1C(F)F (racemic) [Example 300] | 277 | 9.5 | 11.3 | 653 | 5.8 | – | – | – | – |
| C=CC(=O)N1C[C@@H]2CC[C@H]1CN(c1ccc3ncnc(Nc4ccc(Oc5ccn6ncnc6c5)c(C)c4F)c3n1)C2 (racemic) [Example 327] | 1160 | 9.3 | 12.8 | 3500 | 5.4 | – | – | – | – |
| C=CC(=O)N1CC[C@H]2CN(c3ccc4ncnc(Nc5cc(C)c(Oc6ccn7ncnc7c6)cc5F)c4n3)C[C@H]21 [Example 26, 1-((3aS,6aS)-5-(4-((4-([1,2,4]triazolo[1,5-a]pyridin-7-yloxy)-2-fluoro-5-methylphenyl)amino)pyrido[3,2-d]pyrimidin-6-yl)hexahydropyrrolo[3,4-b]pyrrol-1(2H)-yl)prop-2-en-1-one] | – | – | – | – | 8.3 | ≥ 10000 | 20.4 | 121 | ≥ 5000 |
| C=CC(=O)N1CCN(c2ccc3ncnc(Nc4ccc(Oc5cnc6c(c5)ncn6C)c(Cl)c4)c3n2)CC1 [Example 33, 1-(4-(4-((3-chloro-4-((3-methyl-3H-imidazo[4,5-b]pyridin-6-yl)oxy)phenyl)amino)pyrido[3,2-d]pyrimidin-6-yl)piperazin-1-yl)prop-2-en-1-one] | – | – | – | – | 42.7 | 1150 | 3.8 | 15.8 | 869 |
| C=CC(=O)N1CCC(c2ccc3ncnc(Nc4ccc(Oc5ccc6c(c5)ncn6C)c(C)c4)c3n2)CC1 [Example 34, 1-(4-(4-((3-methyl-4-((1-methyl-1H-benzo[d]imidazol-5-yl)oxy)phenyl)amino)pyrido[3,2-d]pyrimidin-6-yl)piperidin-1-yl)prop-2-en-1-one] | – | – | – | – | 6.7 | 6870 | 9.5 | 28.7 | ≥ 5000 |
| CC#CC(=O)N1C[C@@H]2CC[C@H]1CN2c1ccc2ncnc(Nc3ccc(Oc4ccn5ncnc5c4)c(C)c3F)c2n1 [Example 333] | – | 31 | 155 | 2130 | 6.8 | – | – | – | – |
| C=CC(=O)N1CC[C@H]2C[C@@H]1CN2c1ccc2ncnc(Nc3ccc(Oc4ccn5ncnc5c4)c(Cl)c3F)c2n1 [Example 436] | 1920 | 459 | 36.3 | ≥ 5000 | – | – | – | – | – |
| C=CC(=O)N1C2CC1CN(c1ccc3ncnc(Nc4ccc(Oc5cnc6c(c5)ncn6C)c(C)c4F)c3n1)C2 [Example 438] | ≥ 10000 | 9.8 | 352 | ≥ 5000 | – | – | – | – | – |
| C=CC(=O)N1CC[C@H]2C[C@@H]1CN2c1ccc2ncnc(Nc3cc(Cl)c(Oc4ccn5ncnc5c4)cc3F)c2n1 [Example 439] | ≥ 10000 | 933 | 148 | ≥ 5000 | – | – | – | – | – |
| C=CC(=O)N1CCN(c2ccc3ncnc(Nc4cc(Cl)c(Oc5cnc6c(c5)ncn6C)cc4F)c3n2)C[C@@H]1C1CC1 [Example 440] | ≥ 10000 | 42.8 | 189 | ≥ 5000 | – | – | – | – | – |
| C=CC(=O)N1CC2CCC(C1)N2c1ccc2ncnc(Nc3ccc(Oc4ccn5ncnc5c4)c(Cl)c3F)c2n1 [Example 445] | 33.6 | 5.7 | 4.7 | 60.1 | – | – | – | – | – |
| C=CC(=O)N1CCN(c2ccc3ncnc(Nc4ccc(Oc5ccn6ncnc6c5)cc4C(F)(F)F)c3n2)CC1(C)C [Example 448] | ≥ 10000 | 87.6 | 370 | 3440 | – | – | – | – | – |
| C=CC(=O)N1CCN(c2ccc3ncnc(Nc4cnc(Oc5ccn6ncnc6c5)c(C)c4)c3n2)CC1(C)C [Example 449] | 7510 | 56.2 | 91.9 | ≥ 5000 | – | – | – | – | – |
| C=CC(=O)N1CCN(c2ccc3ncnc(Nc4ccc(Oc5cnc6c(c5)ncn6C)c(C)c4F)c3n2)CC12CC2 [Example 450] | 480 | 9.8 | 67.3 | 1160 | – | – | – | – | – |
| C=CC(=O)N1CCN(c2ccc3ncnc(Nc4ccc(Oc5ccn6ncnc6c5)c(C(F)F)c4)c3n2)CC1(C)C [Example 451] | 6260 | 49.3 | 106 | 3340 | – | – | – | – | – |
| C=CC(=O)N1CCN(c2ccc3ncnc(Nc4cc(F)c(Oc5ccn6ncnc6c5)cc4F)c3n2)CC1(C)C [Example 453] | ≥ 10000 | 56.3 | 147 | ≥ 5000 | – | – | – | – | – |
| C=CC(=O)N1CC[C@@H]2C[C@H]1CN2c1ccc2ncnc(Nc3cc(Cl)c(Oc4cnc5c(c4)ncn5C)cc3F)c2n1 [Example 456] | ≥ 10000 | 253 | 711 | ≥ 5000 | – | – | – | – | – |
